Experimental data as given in patent publication US20260008758A1, “LINEAR DIPEPTIDYL PEPTIDASE 1 INHIBITORS AND USES THEREOF” (Insmed Incorporated, priority 2024, published 2026).

Columns and labels:
human DPP1 enzyme = human DPP1 enzyme (Homo sapiens (Human), UniProt P53634); experiment: Human DPP1 enzyme single-point percent inhibition testing (HL-60 lysate, H-Gly-Arg-AMC substrate); assay type: biochemical; settings: read-out: human DPP1 enzyme % inhibition @ 10 nM, 10 nM compound, 400 μM H-Gly-Arg-AMC, 10 min pre-incubation at 37° C.
human DPP1 enzyme, sequence (P53634 25-134): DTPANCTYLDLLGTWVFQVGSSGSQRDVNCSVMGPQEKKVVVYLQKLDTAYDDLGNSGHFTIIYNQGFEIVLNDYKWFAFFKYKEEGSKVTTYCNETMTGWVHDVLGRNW
human DPP1 enzyme, sequence (P53634 231-394): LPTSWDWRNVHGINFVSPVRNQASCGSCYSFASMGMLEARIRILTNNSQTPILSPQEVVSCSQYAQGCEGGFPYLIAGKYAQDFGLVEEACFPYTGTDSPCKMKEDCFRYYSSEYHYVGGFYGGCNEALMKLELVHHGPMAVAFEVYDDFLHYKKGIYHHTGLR
human DPP1 enzyme, sequence (P53634 395-463): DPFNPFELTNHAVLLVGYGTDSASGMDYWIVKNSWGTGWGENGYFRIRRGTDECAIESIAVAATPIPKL
Method: A crude lysate of HL-60 cells (ATCC; Manassas, VA) was used as a source of human DPP1 enzyme in the assay. Lysate was prepared in 1% Triton X-100 in PBS at a concentration of 20,000 live cells per […] of lysis buffer and was centrifuged at 16,000 rcf for 10 minutes at 4° C., after which supernatant was collected and flash-frozen in liquid nitrogen. Test articles were applied to human DPP1 enzyme in Assay Buffer (25 mM MES pH 6.0, 50 mM NaCl, 5 mM DTT) in a total reaction volume of 125 μL. 25 μL of compound diluted to 50 nM in Assay Buffer plus 5% DMSO was first added to 50 μL of HL-60 lysate diluted to contain a DPP1 enzyme concentration of roughly 1 ng/μL and allowed to pre-incubate for 10 minutes at 37° C. after which 50 μL of 1000 μM H-Gly-Arg-AMC substrate (Bachem; St. Torrance, CA) was added, giving final compound concentration of 10 nM, a final substrate concentration of 400 μM and a final DMSO concentration of 1%. Substrate cleavage was measured for 90 minutes at 37° C., with fluorescence at Excitation/Emission 350/450 nm measured every 5 minutes. DPP1 concentration was interpolated based on its activity relative to a standard curve of activated human recombinant DPP1 enzyme. Percent inhibition at 10 nM was calculated for each test article based on remaining DPP1 activity compared to enzyme activity in wells that received only vehicle control.

DPP1 in HL-60 cells = DPP1 in HL-60 cells (Homo sapiens (Human), UniProt P53634); experiment: DPP1 cell single-point percent inhibition testing (HL-60 cells, H-Gly-Phe-AFC substrate); assay type: cell-based; settings: read-out: DPP1 cell % inhibition @ 5 nM, 5 nM compound, 100 μM H-Gly-Phe-AFC, 60 min pre-incubation at 37° C.
DPP1 in HL-60 cells, sequence (P53634 25-134): as the sequence (P53634 25-134) above
DPP1 in HL-60 cells, sequence (P53634 231-394): as the sequence (P53634 231-394) above
DPP1 in HL-60 cells, sequence (P53634 395-463): as the sequence (P53634 395-463) above
Method: HL-60 cells (ATCC; Manassas, VA) were maintained in RPMI-1640 supplemented with 20% heat-inactivated FBS and 1× Antibiotic Antimycotic (Cytiva; Marlborough, MA). Media was changed every three to four days and cells were not allowed to exceed 1×10^6 cells per mL. Prior to assay, cells were collected by centrifugation at 500 rcf for 3 minutes, resuspended in RPMI (with no additional supplements) and counted. Cells were diluted in RPMI to a concentration of 5×10^5 live cells per mL and transferred to black 96-well plates for assay, 60 μL per well. Test articles were diluted to 25 nM in RPMI plus 0.5% DMSO, and 20 μL was added to each assay well. Compound was allowed to pre-incubate with cells with gentle shaking at 100 rpm for 60 minutes at 37° C. in a cell culture incubator maintained at 5% CO2, after which 20 μL of 500 μM H-Gly-Phe-AFC cell-permeable substrate (MP Biomedicals; Solon, OH) in RPMI was added to each well, giving final compound concentration of 5 nM, a final substrate concentration of 100 μM and a final DMSO concentration of 0.1%. Plates were returned to the incubator with shaking at 100 rpm for 30 minutes, after which fluorescence was measured at Excitation/Emission 400/505 nm. Percent Inhibition was calculated from RFU values by first subtracting background values (wells in which RPMI was substituted for cells) from each well, and then subtracting background-subtracted RFU derived from wells that received a final concentration of 10 μM brensocatib. This value represents the non-specific substrate cleavage from the HL-60 cells, and the remaining RFU should theoretically be solely the contribution of DPP1 enzyme activity. The final percent inhibition value was calculated for each test article based on remaining RFU compared to RFU from wells that received only vehicle control.

| Structure (SMILES) | inhibition at 0.01 µM (human DPP1 enzyme) | inhibition at 0.005 µM (DPP1 in HL-60 cells) |
| --- | --- | --- |
| CN(C)C[C@](C)(O)C(=O)N[C@H](C#N)Cc1ccc(-c2ccc3c(c2)C2(CCN(C4COC4)CC2)OC3)cc1 [Compound 392] | ≥ 66.7% | ≤ 76.5% |
| CN(C)C[C@](C)(O)C(=O)N[C@H](C#N)Cc1ccc(-c2ccc3oc(=O)n(CCN4CCOCC4)c3c2)cc1 [Compound 393] | 40 to 66.7% | ≤ 76.5% |
| CN(C)C[C@](C)(O)C(=O)N[C@H](C#N)Cc1ccc(-c2ccc(CN3CCN(C)CC3)cc2)cc1 [Compound 394] | ≤ 40% | 76.5 to 93.9% |
| CN(C)C[C@](C)(O)C(=O)N[C@H](C#N)Cc1ccc(-c2ccc3oc(=O)n(C)c3c2)cc1 [Compound 395] | ≥ 66.7% | 76.5 to 93.9% |
| CN(C)C[C@](C)(O)C(=O)N[C@H](C#N)Cc1ccc(-c2ccc3c(n2)CCCN3)cc1 [Compound 396] | ≤ 40% | ≤ 76.5% |
| CN(C)C[C@](C)(O)C(=O)N[C@H](C#N)Cc1ccc(-c2ccc3c(c2)C2(CC3)CCN(C)CC2)cc1F [Compound 397] | ≥ 66.7% | ≤ 76.5% |
| CN(C)C[C@](C)(O)C(=O)N[C@H](C#N)Cc1ccc(-c2ccc3c(c2)C2(CCCN(C)C2)C(=O)N3C)cc1F (stereo partly drawn) [Compound 398] | ≥ 66.7% | ≥ 93.9% |
| CN(C)CCn1c(=O)oc2ccc(-c3ccc(C[C@@H](C#N)NC(=O)[C@@](C)(O)CN(C)C)c(F)c3)cc21 [Compound 399] | ≥ 66.7% | ≥ 93.9% |
| Cc1cn2cc(-c3ccc(C[C@@H](C#N)NC(=O)[C@@](C)(O)CN(C)C)c(F)c3)cc2c(C)n1 [Compound 400] | 40 to 66.7% | 76.5 to 93.9% |
| CN(C)C[C@](C)(O)C(=O)N[C@H](C#N)Cc1ccc(-c2ccc3c(c2)C2(CN(C)C2)OC3=O)cc1F [Compound 401] | ≥ 66.7% | ≥ 93.9% |
| CCN1C(=O)Cc2ccc(-c3ccc(C[C@@H](C#N)NC(=O)[C@@](C)(O)CN(C)C)c(F)c3)cc21 [Compound 402] | ≥ 66.7% | 76.5 to 93.9% |
| CN(C)C[C@](C)(O)C(=O)N[C@H](C#N)Cc1ccc(-c2ccc3c(c2)C2(CCN(C)C2)OC3=O)cc1F (stereo partly drawn) [Compound 403] | ≥ 66.7% | 76.5 to 93.9% |
| CN(C)C[C@](C)(O)C(=O)N[C@H](C#N)Cc1ccc(-c2ccc3cnn(C4CCN(C)CC4)c3c2)cc1F [Compound 404] | ≥ 66.7% | ≤ 76.5% |
| CN(C)C[C@](C)(O)C(=O)N[C@H](C#N)Cc1ccc(-c2ccc3c(c2)C2(CCN(C4COC4)CC2)OC3)cc1F [Compound 405] | ≥ 66.7% | 76.5 to 93.9% |
| CN(C)C[C@](C)(O)C(=O)N[C@H](C#N)Cc1ccc(-c2ccc3oc(=O)n(CCN4CCOCC4)c3c2)cc1F [Compound 406] | ≥ 66.7% | 76.5 to 93.9% |
| CN(C)C[C@](C)(O)C(=O)N[C@H](C#N)Cc1ccc(-c2ccc(CN3CCN(C)CC3)cc2)cc1F [Compound 407] | 40 to 66.7% | ≥ 93.9% |
| CN(C)C[C@](C)(O)C(=O)N[C@H](C#N)Cc1ccc(-c2ccc3oc(=O)n(C)c3c2)cc1F [Compound 408] | ≥ 66.7% | ≥ 93.9% |
| CN(C)C[C@](C)(O)C(=O)N[C@H](C#N)Cc1ccc(-c2ccc3c(n2)CCCN3)cc1F [Compound 409] | ≥ 66.7% | 76.5 to 93.9% |
| COCCN(C)CCn1c(=O)oc2ccc(-c3ccc(C[C@@H](C#N)NC(=O)[C@@](C)(O)CN(C)C)c(F)c3)cc21 [Compound 410] | ≥ 66.7% | ≥ 93.9% |
| CN(C)C[C@](C)(O)C(=O)N[C@H](C#N)Cc1ccc(-c2ccc3nnn(C)c3c2)cc1 [Compound 413] | 40 to 66.7% | 76.5 to 93.9% |
| CN(C)C[C@](C)(O)C(=O)N[C@H](C#N)Cc1ccc(-c2cnc3c(n2)CCCC3)cc1 [Compound 414] | ≤ 40% | ≤ 76.5% |
